The subject of data set [1] is HCV. Conditions: monotherapy; cited from earlier work.
Data set [2] addresses T1, NS3/4A protease (Hepatitis C virus genotype 1a, UniProt P27958).
T1 construct: a serine protease encoded in the NS3 region
Description: NS3/4A proteolysis inhibition. Type of data set: biochemical. Conditions: read-out: 50% inhibitory concentration (IC50), NS3/4A proteolysis.

For data set [3], the system named is CYP isozymes. Briefly: cytochrome P450 phenotyping using chemical inhibitors. Type of data set: in vitro ADME. From the text: (§1) Therefore, a cytochrome P450 monooxygenase inhibitor in an amount effective to inhibit metabolism of the protease inhibitor could increase the bioavailability of R7227 compared to administration in the absence of the CYP inhibitor.
Data set [4] can be described thus: SAD study in healthy volunteers. The data set is classed as in vivo, human. The text has this:
(A. A. Mathias et al., Clin. Pharmacol. Ther. 2009 85(1)64-70).

Data set [5] concerns genotype 1 HCV replicon. Description: cell-based potency assay employing a genotype 1 HCV replicon. As to conditions: Hepatitis C virus. On the technique in general: A replicon is a self-replicating genome or part of one, used to study replication in cells.
The nature of data set [6]: Pharmacokinetic enhancement of R7227 by ritonavir in healthy adults. Type of data set: in vivo, human. Conditions: for concentration at 12 h / Cmax / AUC(0-inf): human, plasma; for concentration at 12 h: read-out: C12 h, GLSM; for Cmax / AUC(0-inf): N 12. Here is the method: Subjects were screened for participation in this study within 21 days before dosing. The study enrolled 14 healthy volunteers (n=14 per group). The dosing schedule is illustrated below: [table] […] was formulated into clear size 10 oval soft gelatin capsules for oral administration at a strength of 100 mg per capsule (anhydrous free acid equivalent). The capsule fill solution consists of […]-001, polyethylene glycol PEG400 (Macrogol 400), and butylated hydroxytoluene (BHT). All excipients are compendial grade (NF or EP). Gelatin Type 195 (NF, EP) is used as the bulk gel mass for the capsule shell, with small amounts of sorbitol liquid 85/70/00 (NF, EP) and water (USP) used as plasticizers. All study medications were with a meal. […] was administered orally as a single dose of a 100 mg soft gel capsule on days 1, 3 and 12. […] Blood samples (5 mL) were collected to determine plasma concentrations of […] (and metabolites when assays were available) according to the following schedule Day 1, PK samples (5 mL) were be collected before […] dosing (predose) and at 0.5, 1, 1.5, 2, 2.5, 3, 3.5, 4, 6, 8, 12, and 24 hours after […] dosing; Days 3 and 12, PK samples (5 mL) were collected before […] dosing (predose) and at 0.5, 1, 1.5, 2, 2.5, 3, 3.5, 4, 6, 8, 12, 24, 36, and 48 hours after […] dosing. Primary PK parameters of […] that were determined are Cmax and AUC0→∞. Secondary PK parameters of […] that were measured include Tmax and AUC0→last, CL/F, t1/2, C12 hr and C24 h. Analysis of variance (ANOVA) was applied to the log-transformed primary pharmacokinetic parameters. Two-sided 90% confidence intervals for the ratios of the geometric means of the primary parameters (AUC0→∞ and Cmax of […]) were derived for the following comparisons: […] Analysis of variance (ANOVA) was used to analyze all primary study parameters using the following model: Yij=μ+τi+sj+εij where Yij denotes the PK parameter to be analyzed, μ denotes the general mean of the transformed variable, τi, the fixed effect of treatment; sj the random effect of subject; εij (error). The random deviations εij are assumed to be independent and normally distributed with zero mean and common variance σ^2. The group comparisons τ […]+Ritonavir-τ[…], the residual variance σ^2, and the 90% confidence limits for the group comparisons were estimated from the ANOVA model. For log-transformed variables (AUC0→∞ and Cmax), the ratio of true group means and the confidence limits for the corresponding ratio of means of the untransformed variables will be calculated by exponentiation of the least squares means differences and the confidence limits for the transformed values, respectively.

The target in data set [7] is recombinant CYPs (Homo sapiens, UniProt P08684). Briefly: metabolism by recombinant CYPs. Type of data set: in vitro ADME.
Description: as §1

The mark [8] stands for this setting: po, 100 mg, Day 1 (alone), R7227 100 mg single oral dose.
Where [9] appears, read: multiple doses of ritonavir 100 mg every 12 hours.

The structures appear in SMILES notation. Like-named read-outs stand apart in the source and are kept apart here. A value given as a limit tells only on which side of the number the result lay.

Chain of recombinant CYPs (P08684 whole entry): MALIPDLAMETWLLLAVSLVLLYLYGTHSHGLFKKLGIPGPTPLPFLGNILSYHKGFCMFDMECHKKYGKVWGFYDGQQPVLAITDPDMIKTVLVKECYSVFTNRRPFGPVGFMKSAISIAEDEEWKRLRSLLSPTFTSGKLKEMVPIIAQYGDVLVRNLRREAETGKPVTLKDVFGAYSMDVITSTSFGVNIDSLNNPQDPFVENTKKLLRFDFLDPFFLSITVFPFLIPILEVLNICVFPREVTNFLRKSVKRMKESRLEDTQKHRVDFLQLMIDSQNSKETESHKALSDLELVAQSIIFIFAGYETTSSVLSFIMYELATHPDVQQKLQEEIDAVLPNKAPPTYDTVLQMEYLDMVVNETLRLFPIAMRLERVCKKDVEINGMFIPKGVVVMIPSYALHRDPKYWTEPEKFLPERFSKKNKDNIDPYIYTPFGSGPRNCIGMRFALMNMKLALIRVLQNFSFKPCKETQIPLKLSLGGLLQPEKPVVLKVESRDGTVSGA
T1 sequence (P27958 1658-1711): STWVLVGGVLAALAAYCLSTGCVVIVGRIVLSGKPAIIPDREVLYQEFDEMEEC
T1 sequence (P27958 1027-1657): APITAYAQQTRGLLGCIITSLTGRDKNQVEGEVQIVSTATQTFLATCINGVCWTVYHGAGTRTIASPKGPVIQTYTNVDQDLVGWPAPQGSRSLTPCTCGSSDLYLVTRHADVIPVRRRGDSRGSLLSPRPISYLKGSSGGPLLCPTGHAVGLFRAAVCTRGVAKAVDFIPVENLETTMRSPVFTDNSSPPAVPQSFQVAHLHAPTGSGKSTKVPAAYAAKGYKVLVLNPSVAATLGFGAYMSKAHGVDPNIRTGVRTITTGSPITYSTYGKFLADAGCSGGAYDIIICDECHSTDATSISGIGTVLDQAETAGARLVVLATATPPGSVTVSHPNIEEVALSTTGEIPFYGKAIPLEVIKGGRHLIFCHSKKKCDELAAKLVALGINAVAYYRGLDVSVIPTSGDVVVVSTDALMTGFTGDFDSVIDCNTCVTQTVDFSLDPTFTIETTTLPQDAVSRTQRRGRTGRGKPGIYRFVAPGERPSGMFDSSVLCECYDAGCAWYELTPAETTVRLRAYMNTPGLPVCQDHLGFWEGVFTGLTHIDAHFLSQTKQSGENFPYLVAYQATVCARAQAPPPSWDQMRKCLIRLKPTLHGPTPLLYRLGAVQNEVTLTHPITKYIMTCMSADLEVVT

Regarding `NC(=O)c1ncn([C@@H]2O[C@H](CO)[C@@H](O)[C@H]2O)n1` [ribavirin, 1-((2R,3R,4S,5R)-3,4-dihydroxy-5-hydroxymethyl-tetrahydro-furan-2-yl)-1H-[1,2,4]triazole-3-carboxylic acid amide], in data set [1], the “patients with serum amino transferase levels reduced to normal” value was 40%.

In the case of `CC(C)(C)OC(=O)N[C@H]1CCCCC/C=C\[C@@H]2C[C@@]2(C(=O)NS(=O)(=O)C2CC2)NC(=O)[C@@H]2C[C@@H](OC(=O)N3Cc4cccc(F)c4C3)CN2C1=O` [R7227], the IC50 in data set [2] was at most 0.225 nM; in data set [5] it was 1.77 nM. Besides, in data set [3], the “CYP isozymes participating in metabolism” value is “multiple CYP isozymes including 3A4, 2C19, 1A2, 2D6, and 2C9 participate in the metabolism”. Besides, the “highest safe and tolerable dose” value in data set [4] was found to be 1600 mg. Further, the “AUC0→∞, ratio of GLSM (90% CI)” value is listed as 5.70 (4.07, 7.99) in data set [6] (Day 3 vs Day 1) and 5.50 (4.05, 7.48) in data set [6] (Day 12 vs Day 1). Moreover, the “Cmax, ratio of GLSM (90% CI)” value in data set [6] (Day 3 vs Day 1) was 3.14 (1.87, 5.25); in data set [6] (Day 12 vs Day 1) it was 3.25 (2.12, 4.96). Moreover, the “C12 h, ratio of GLSM (90% CI)” value in data set [6] (Day 3 vs Day 1, N 8, non-missing non-BLQ data) was 50.6 (25.6, 100); in data set [6] (Day 3 vs Day 1, N 12, includes extrapolated day 1 values) it was 65.2 (34.8, 122); in data set [6] (Day 12 vs Day 1, N 8, non-missing non-BLQ data) it was 26.9 (17.7, 41.0); in data set [6] (Day 12 vs Day 1, N 12, includes extrapolated day 1 values), 42.4 (25.7, 70.0). Besides, the concentration at 12 h is 0.02 ng/mL in data set [6] (oral, 100 mg, Day 1 (alone), N 8, non-missing non-BLQ data from all three treatment days); 0.01 ng/mL in data set [6] (oral, 100 mg, Day 1 (alone), N 12, includes extrapolated C12 h values from 4 subjects with BLQ values on day 1); 1 ng/mL in data set [6] (oral, Day 3 (with ritonavir single dose), N 8, non-missing non-BLQ data); 0.55 ng/mL in data set [6] (oral, Day 3 (with ritonavir single dose), N 12 (set including extrapolated day 1 values)); 0.53 ng/mL in data set [6] (oral, Day 12 (with ritonavir multiple dose), N 8, non-missing non-BLQ data); 0.36 ng/mL in data set [6] (oral, Day 12 (with ritonavir multiple dose), N 12 (set including extrapolated day 1 values)). Moreover, the Cmax in data set [6] (oral, Day 3 (with ritonavir single dose)) is 26.4 ng/mL; in data set [6] (oral, Day 12 (with ritonavir multiple dose)), 27.3 ng/mL; in data set [6] (setting [8]), 8.4 ng/mL. Further, the AUC(0-inf) in data set [6] (setting [8]) amounted to 14.4 ng·h/mL; in data set [6] (po, 100 mg, Day 3 (with ritonavir single dose), R7227 100 mg oral), 82 ng·h/mL; in data set [6] (po, 100 mg, Day 12 (with ritonavir multiple dose), R7227 100 mg oral), 79.4 ng·h/mL. The “increase of R7227 AUC0→∞” value in data set [6] (setting [9]) is “approximately 5.5 fold”. The “increase of R7227 Cmax” value in data set [6] (setting [9]) was about 3.25 fold. Besides, the “metabolism by recombinant CYPs” value in data set [7] is reported as “only CYP3A4 metabolized R7227 to an extent that could influence the pharmacokinetics”.

The Cmax is the maximum level reached in the sampled fluid or tissue. In general, AUC(0-inf) refers to total exposure, with the tail of the curve extrapolated.

Values taken from patent US10918626B2, “Method for improving pharmacokinetics” (Roche Palo Alto LLC, priority 2009, dated 2021).
